{"source": "patent US11633411B2", "about": "“Methods of treating sepsis using anti-sepsis lipid A (ASLA) based therapeutics” (UNIVERSITY OF MARYLAND, BALTIMORE, priority 2016, dated 2023)", "key": {"[1]": {"biological_target": "T1, TLR4 (Homo sapiens, UniProt O00206+Q9Y6Y9)", "T1 sequence (O00206 24-839)": "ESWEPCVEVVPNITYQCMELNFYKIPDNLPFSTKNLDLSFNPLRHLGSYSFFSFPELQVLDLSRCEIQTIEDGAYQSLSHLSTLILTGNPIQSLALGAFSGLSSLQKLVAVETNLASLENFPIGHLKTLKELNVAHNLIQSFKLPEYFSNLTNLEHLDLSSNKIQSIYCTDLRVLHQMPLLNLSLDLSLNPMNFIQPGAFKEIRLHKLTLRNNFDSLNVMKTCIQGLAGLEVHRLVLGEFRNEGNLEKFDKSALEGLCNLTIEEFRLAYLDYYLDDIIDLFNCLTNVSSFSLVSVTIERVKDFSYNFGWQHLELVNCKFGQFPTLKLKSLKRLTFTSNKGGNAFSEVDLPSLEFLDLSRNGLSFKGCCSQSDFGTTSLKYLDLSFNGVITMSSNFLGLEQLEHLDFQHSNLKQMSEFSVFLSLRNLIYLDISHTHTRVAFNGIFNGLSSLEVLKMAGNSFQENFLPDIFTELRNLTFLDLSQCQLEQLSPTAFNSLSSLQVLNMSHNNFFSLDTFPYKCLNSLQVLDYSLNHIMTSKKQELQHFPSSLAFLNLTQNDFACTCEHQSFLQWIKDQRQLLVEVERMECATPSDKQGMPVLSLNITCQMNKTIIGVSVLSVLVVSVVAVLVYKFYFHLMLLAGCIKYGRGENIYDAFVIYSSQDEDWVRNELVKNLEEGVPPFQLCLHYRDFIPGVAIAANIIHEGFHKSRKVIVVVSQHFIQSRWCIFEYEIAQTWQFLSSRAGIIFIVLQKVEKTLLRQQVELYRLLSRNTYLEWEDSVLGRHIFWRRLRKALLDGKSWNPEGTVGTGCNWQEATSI", "T1 sequence (Q9Y6Y9 17-160 limits assumed)": "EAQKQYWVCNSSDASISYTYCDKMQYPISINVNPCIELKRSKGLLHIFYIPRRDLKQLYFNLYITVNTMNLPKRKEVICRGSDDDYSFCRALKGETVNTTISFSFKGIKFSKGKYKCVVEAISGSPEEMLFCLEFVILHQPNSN", "assay": "Competitive inhibition of pro-inflammatory LPS in THP-1 Dual reporter cells", "conditions": "Se LPS plus ASLA 470", "experimental": "THP-1 Dual cells (Invitrogen) contain an easily detected secreted alkaline phosphatase (SEAP) under the NFκB promoter. E. coli LPS (circles), ALSA 468 (squares), and E. coli LPS+a constant 10 ng/mL ASLA 468 (triangles) are cultured with THP-1 Dual over a 5-log dilution series, activation of NFκB, as measured by SEAP expression, is pictured.\nTo investigate the inflammatory properties of BECC synthesized molecules ASLA 468 and 470, THP-1 Dual cells (Invitrogen) were used to screen for NF-κB activation.\nExperimental Setup: Reporter cell line THP-1 Duals (Invitrogen) are incubated for 18 hours over a five-log dose range with either Salmonella enterica (Se) LPS alone, BECC molecule alone (467@26, 468@26, 468@37, 469@26, 470@26, 470@37), or increasing doses of Se with a constant dose of BECC molecule (10 ng/mL). THP-1 Dual cells have a SEAP reporter under the NFκB promoter that is easily quantified in the supernatant of cultured cells. After 18 hours of culture supernatant is removed from the cell culture and SEAP is quantified to indicate the level of NFκB activation/inflammation. OD@620 nm can be directly extrapolated to represent relative amounts of NFκB activation. […] Mean±SD of duplicate samples is graphed for each data point."}, "[2]": {"biological_target": "T1, TLR4", "assay": "NF-κB activation screen in THP-1 Dual reporter cells (SEAP under NFκB promoter)", "type": "cell-based", "parameters": "host or cells: THP-1 Dual reporter cells", "description": "To identify the most successful ASLA candidates to be tested for efficacy in vivo, we will stimulate both human and mouse cell cultures with increasing concentrations (0.01 ng/ml, 0.1 ng/ml, 1 ng/ml, 10 ng/ml, 100 ng/ml) of novel lipid A preparations for 4 and 24 hours. All in vitro assays will be run in biological triplicate to increase the scientific rigor of experiments. Activation of inflammatory pathways will be investigated by stimulating THP-1 cells (ATTC), a human monocytic cell line, followed by multiplex analysis of cytokines in the supernatant minimally including TNF-α, IL-8, and IL-6. We will also screen ASLA molecules using THP-1 Dual (Invitrogen) and HEK293 cells transfected with human or mouse MD2/TLR4 (Invitrogen), which have an easily detectable SEAP transcript under the NF-kB promoter to quickly evaluate the potential for these ASLA molecules to inhibit MyD88-NF-kB activation. To account for authentication of key biological resources, all cell lines were purchased from and verified by either ATCC or Invitrogen within the past year and cells used in experiments have been passaged less than 15 times since purchase. Together, these assays will illustrate a lack of inflammatory activation when cells are stimulated with the ASLA molecules. […]"}, "[3]": {"system": "C57BL6 mice", "assay": "Lethal endotoxic shock mouse model (25 mg/kg E. coli W3110 LPS i.p.)", "type": "in vivo", "conditions": "for survival rate: preliminary experiment; for survival: repeat experiment", "description": "FIG. 4. ALSA 468 therapeutically rescues mice from lethal endotoxic shock. Lethal endotoxic shock was induced in 6-8 week old C57BL6 mice by injecting 25 mg/kg of E. coli LPS (strain W3110) i.p. […]\nTo determine if ASLA 468 is capable of therapeutically rescuing mice that have received a lethal dose of pro-inflammatory Ec LPS, an in vivo mouse model of lethal endotoxin septic shock was used. Medzhitov, R. Nat. Rev. Immunol. 2001, 1, 135-145; Remick et al., Shock 2000, 13, 110. […] These pilot experiments provide a proof-of-principle that molecules found to compete with pro-inflammatory LPS in vitro are also capable of combating symptoms of septic shock in vivo. Future sepsis models to be used in this proposal will account for bacterial clearance after antibiotic treatment, in vivo location and concentration of LPS, and the structural relationship between ASLA and MD2/TLR4 complex that will address some shortcomings of previous anti-sepsis therapeutics, which is the scientific premise of this proposal. Raetz et al., Annu. Rev. Biochem. 2002, 71, 635-700; Raetz et al., J. Lipid Res. 2009, 50 Suppl, S103-108; Needham et al., S. Nature Reviews Microbiology 2013, 11, 467-481; Ernst et al., Science 1999, 286, 1561-1565; Miller et al., Nature Reviews Microbiology 2005, 3, 36-46; Siegemund et al., Nat Immunol 2012, 13, 1031-1033; Rietschel et al., FASEB J. 1994, 8, 217-225; van Lieshout et al., Inflamm. Res. 2014, 63, 927-933; Buras et al., Nat Rev Drug Discov 2005, 4, 854-865.\nExperimental Setup: Similarly to the non-lethal endotoxic shock model, in this in vivo model of lethal septic shock 6-week old C57BL6 mice were injected intraperitoneally with either 25 mg/kg E. coli (W3110) LPS, co-administered 25 mg/kg Ec LPS+10 mg/kg BECC468@26, or 25 mg/kg Ec LPS followed by 10 mg/kg BECC468@26 four hours later. Mice were monitored for survival every 12 hours post-injection. n=6 mice for each group, percent survival for each group is graphed."}}}
{"smiles": "CCCCCC/C=C\\CCCCCCCC(=O)OC(CCCCCCCCCCC)CC(=O)NC1[C@H](OCC2OC(OP(=O)(O)O)C(NC(=O)CC(CCCCCCCCCCC)OC(=O)CCCCCCCCCCCCCCC)[C@@H](OC(=O)CC(O)CCCCCCCCCCC)[C@@H]2O)OC(CO)C(O)[C@@H]1OC(=O)CC(CCCCCCCCCCC)OC(=O)CCCCCCCCCCC", "note": "(some centres unmarked) [ASLA 470]", "values": [{"measurement": "fold increase of the EC50 of Se LPS", "setting": "[1]", "value": 1.9, "unit": "fold"}, {"measurement": "agonist category (full, partial, or weak agonist) for NF-κB activation", "setting": "[2]; five-log dilution series, compared to Ec LPS positive control", "value": "weak agonists"}]}
{"smiles": "CCCCCC/C=C\\CCCCCCCC(=O)OC(CCCCCCCCCCC)CC(=O)NC1[C@H](OCC2OC(OP(=O)(O)O)C(NC(=O)CC(O)CCCCCCCCCCC)[C@@H](OC(=O)CC(O)CCCCCCCCCCC)[C@@H]2O)OC(CO)C(O)[C@@H]1OC(=O)CC(CCCCCCCCCCC)OC(=O)CCCCCCCCCCC", "note": "(some centres unmarked) [ASLA 468]", "values": [{"measurement": "survival rate", "setting": "[3]; 10 mg/kg given 4 hours after 25 mg/kg Ec LPS", "value": 66.6, "unit": "%"}, {"measurement": "survival rate", "setting": "[3]; 10 mg/kg given simultaneously with 25 mg/kg Ec LPS", "value": 100, "unit": "%"}, {"measurement": "pathogenic symptoms", "setting": "[3]; mice injected with ASLA 468 alone", "value": "no signs of pathogenic symptoms"}, {"measurement": "survival", "setting": "[3]; treated 8 hours post-induction", "value": 100, "unit": "%"}, {"measurement": "survival", "setting": "[3]; treated 12 hours post-induction", "value": 66.6, "unit": "%"}, {"measurement": "EC50", "setting": "[2]", "value": 69.5, "unit": "nM"}]}
